# In patent publication US7589063B2, “Molecules which promote hematopoiesis” (Aplagen GmbH, priority 2004, dated 2009):
# System: TF-1 cells
# Experiment: Proliferation assay with TF-1 cells by MTT
# Format: cell-based
# Conditions: MTT-assay data, dose-response fitted with GraphPad
# Procedure: TF-1 Cells in logarithmic growth phase (˜2×10^5−1×10^6 cells/ml; RPMI medium; 20% fetal calf serum; supplemented with Penicillin, streptomycin, L-Glutamine; 0.5 ng/ml Interleukin 3) are washed (centrifuge 5 min. 1500 rpm and resuspend in RPMI complete without IL3 at 500,000 cells/ml) and pre-cultured before start of the assay for 24 h without IL-3. At the next day the cells are seeded in 24- or 96-well plates usually using at least 6 concentrations and 4 wells per concentration containing at least 10,000 cells/well per agent to be tested. Each experiment includes controls comprising recombinant EPO as a positive control agent and wells without addition of cytokine as negative control agent. Peptides and EPO-controls are prediluted in medium to the desired concentrations and added to the cells, starting a culture period of 3 days under standard culture conditions (37° C., 5% carbon dioxide in the gas phase, atmosphere saturated with water). […]
# At day 4, prior to start of the analysis, a dilution series of a known number of TF-1 cells is prepared in a number of wells (0/2500/5000/10000/20000/50000 cells/well in 100 μl medium). These wells are treated in the same way as the test wells and later provide a calibration curve from which cell numbers can be determined. […] 25 μl of 10% sodium dodecylsulfate in water are added to each well prior to measurement E492 in an ELISA Reader.
sequence,measurement,value
GGTYSCHFGGLTWVCKPQGG [SEQ. ID NO. 12],EC50 values,no activity detectable
